Values of other authors, collected in patent publication US6211219A, “Aminocyclohexane derivatives as 5-HT receptor agonists” (Merck Sharp & Dohme Ltd., priority 1996, dated 2001).

Tests used:
humans = conditions: therapeutic doses
[1] = test system: human 5-HT1Dα and 5-HT1Dβ receptor subtypes; conditions: cf. WO-A-91/17174, Table 1

SMILES: CNS(=O)(=O)Cc1ccc2[nH]cc(CCN(C)C)c2c1 [sumatriptan]
- adverse cardiovascular events on administration to humans (humans): certain adverse cardiovascular events
- discrimination between the human 5-HT1Dα and 5-HT1Dβ receptor subtypes [1]: barely discriminates
